The values below come from patent publication US7264629B2, “Photodynamic therapy for the treatment of hair loss” (QLT, Inc., priority 2001, dated 2007).

One series concerns shaved Balb/C mice. The series is described as follows: PDT-induced stimulation of hair growth using topically-applied photosensitizer in shaved Balb/c mice. It is filed as in vivo. How it is done: To prepare QLT 0074-containing ointment, QLT 0074 photosensitizer was dissolved in glacial acetic acid to solubilize it. The solution was then frozen in a dry ice/isopropanol bath and the acetic acid was removed by lyophilization. The resultant material was a fine fluffy powder. […] The ointment base was prepared by first warming polyethylene glycol 200 (PEG 200) to 80-90° C. with stirring. Polyethylene glycol 3350 (PEG 3.35 K) was then added with stirring, followed by oleyl alcohol, and then diethylene glycol monoethyl ether. Stirring was continued until the solution was clear. The ointment base was cooled to approximately 50° C., and the QLT 0074 was added with stirring. Stirring was continued as the mixture cooled, until a homogenous paste was achieved. […]
Female Balb/C mice (8-14 weeks old) were supplied by Charles River Canada (St. Constance, Quebec). […] Mice were randomly assigned to PDT treatment and controlled groups, and were monitored for pain or distress.
Eighteen mice were shaved to remove hair from the back and both flanks. […] QLT 0074-containing ointment was applied to a square spot on the left side of each of mice 1-9 using a square template, with the same quantity of ointment applied to each spot. […]

In series [1] the test system is shaved female Balb/c mice. As to the kind of experiment: Optimization of drug concentration, irradiation dose and light intensity on hair regrowth in shaved mice, topical QLT 0074. It is filed as in vivo. The following applies: for hair regrowth at the treatment site: 0.5% ointment. As to the method: A study was performed to assess the effect of drug concentration (0.005, 0.05, or 0.5% QLT 0074 ointment), light dose (50, 100 or 150 J/cm^2 red light) and light intensity 50 or 200 mW/cm) on hair regrowth in shaved female Balb/c mice. Mice received QLT 0074 ointment applied to the skin for 30 minutes, followed by a 15-minute treatment with placebo ointment and exposure to red light (688 nm). One group received no QLT 0074 ointment, only the placebo ointment and light exposure. Preparation of ointments and treatment procedure was as outlined in Example 2, except that different amounts of QLT 0074 were added.
Ointments were prepared as in Example 2, except that different amounts of QLT 0074 (on a weight/weight basis) were incorporated into the ointments. The treatment procedure was as outlined in Example 2.

Series [2] has as its system human males with type II or III Vertex alopecia (AGA). The series is described as follows: Stimulation of hair growth in human subjects with AGA (single topical PDT, terminal hair counts). To be noted: 0.2% w/w ointment, 50 and 75 J/cm^2; 10 subjects; during and after treatment. It is filed as in vivo. As to the method: A total of 10 subjects were treated. All subjects were human males over 18 years of age and had type II or III Vertex alopecia, rated according to the modified Hamilton-Norwood scale. All subjects received a single application of topical QLT0074 ointment 0.2% weight in weight (w/w) to two of three circular test sites on the vertex area of the scalp. The amount of ointment applied to each test site was approximately 224 mg (about 0.44 mg of photosensitizer per test site). After 2 hours the excess drug was removed and red light (LED's—690 nm) was administered to two of the three sites. The other test site served as a control with no drug or light administration.
Two light dose cohorts (50 and 75 J/cm^2) were investigated with each cohort having 5 subjects.
Safety was assessed by monitoring all adverse events during and after the treatment.
The efficacy was assessed by hair counts 3 months after the treatment and compared to baseline counts.

Series [3] concerns C3H/HeJ female mice exhibiting hair loss. The series is described as follows: Stimulation of hair growth in a mouse model of alopecia areata (topical PDT). It is filed as in vivo. The following applies: 0.2% (w/w) ointment. An excerpt:
A disease closely resembling human alopecia areata has been observed in aging (over 6-month old) C3H/HeJ mice (see Sundberg, J. P et al, Alopecia Areata in Aging C3H/HeJ Mice, Journal of Investigative Dermatology 102(6): 847-856 [1994[). […] All other areas outside of the treatment site were left untreated.
Following this treatment, all 3 mice received a dose of 50 J/cm^2 688 nm light delivered at a rate of 50 mw/cm^2 in the 1.5 square area. Mice were monitored for skin photosensitivity reactions on Days 1 and 3 after light exposure and observed for hair re-growth for up to 19 days post-treatment.

In a further series the test system is patients. The following applies: topical 0.5% HP and UVA three times a week; first week of treatment; two patients; cited from earlier work.
The test system of the next series is alopecia areata patients. The following applies: 2% khellin and UVA, cited from earlier work.

The structures appear in SMILES notation.

Consider `C=Cc1c(C)c2cc3nc(cc4[nH]c(cc5nc(cc1[nH]2)C(C)=C5CCC(=O)OCCO)c(CCC(=O)OCCO)c4C)[C@@]1(C)C3=CC=C(C(=O)OC)[C@H]1C(=O)OC` [QLT 0074], for which the “hair re-growth, representative mouse (FIG. 4)” value in the series on shaved Balb/C mice (17 days after PDT treatment) is recorded as “Hair re-growth was observed”. For the same molecule, the “number of mice that developed hair growth on the treated area by day 17” value with shaved Balb/C mice (out of nine mice, 0.5% w/w ointment 30 min, 688 nm 50 J/cm^2 at 200 mW/cm^2) was “five”. Further, the hair growth result in series [1] (0.05% ointment, any light dose) is on record as “did not exhibit hair growth”. The “hair regrowth at the treatment site” value was “Hair regrowth at the treatment site was observed” in series [1] (50, 100 or 150 J/cm^2 at 200 mW/cm^2) and “Hair regrowth at the treatment site was also observed” in series [1] (50 or 100 J/cm^2 red light at 50 mW/cm^2). In addition, in series [1] (all drug and light dose combinations), the “moderate or severe skin photosensitivity reactions” value is “no moderate or severe skin photosensitivity reactions were observed”. For the same molecule, the “number of animals with hair regrowth at the treatment site” value in series [1] (of three animals, 0.005% ointment, 150 J/cm^2 at 200 mW/cm^2) is “one”. The “skin reactions following treatment” value in series [1] (some treatments, typically highest drug and light dose combinations) is on record as “Mild skin reactions were evident”. Besides, the serious adverse events entry in series [2] is “No serious adverse events were reported”. Also, the skin photosensitivity reactions result in series [3] (50 J/cm^2 688 nm at 50 mw/cm^2, Days 1 and 3 after light exposure) is “no skin photosensitivity reactions were observed”. The “number of mice with increased amount of hair in the treatment area” value in series [3] (of the 3 mice treated, day 7 post-treatment, 50 J/cm^2 688 nm) was determined as 2.

`CC1=C(CCC(=O)O)c2cc3[nH]c(cc4nc(cc5[nH]c(cc1n2)c(C)c5C(C)O)C(C)=C4C(C)O)c(C)c3CCC(=O)O` (centres unmarked) [hematoporphyrin, Hematoporphyrin]: the “skin reactions in treated sites” value in the series on patients is “significant erythema and mild scaling followed by hyperpigmentation”.

For `COc1c2occc2c(OC)c2c(=O)cc(C)oc12` [khellin], the phototoxicity result with alopecia areata patients is “did not cause phototoxicity”. Moreover, the “number of patients treated successfully” value with alopecia areata patients (of the 10 patients tested) is reported as 5.
